Results reported in the supplement of paper PMC10307832.

Tests used:
Assay in all cases: relative viability (nuclei count vs DMSO), 5 days (fraction); higher = more cells survive
Tipifarnib + Dasatinib = compound: Cn1cncc1[C@@](N)(c1ccc(Cl)cc1)c1ccc2c(c1)c(-c1cccc(Cl)c1)cc(=O)n2C [Tipifarnib] + Cc1nc(Nc2ncc(C(=O)Nc3c(C)cccc3Cl)s2)cc(N2CCN(CCO)CC2)n1 [Dasatinib] (partner 0.075 µM)
Procedure, shortened: (§1)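 Values are medians from duplicate plates. Each reflects relative viability, defined as the nuclei count of treated wells over that of vehicle wells. Lung cancer cell lines in 1536-well plates were pin-tool dosed one day after seeding with one drug alone or with a fixed anchor-drug dose plus five library-drug doses (not always all listed) in √10 steps, then fixed, stained and imaged at 4× after 5 days.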

Tipifarnib + Vorinostat = compound: Cn1cncc1[C@@](N)(c1ccc(Cl)cc1)c1ccc2c(c1)c(-c1cccc(Cl)c1)cc(=O)n2C [Tipifarnib] + O=C(CCCCCCC(=O)Nc1ccccc1)NO [Vorinostat] (partner 1 µM)
Procedure, shortened: as §1

Tipifarnib + Crizotinib = compound: Cn1cncc1[C@@](N)(c1ccc(Cl)cc1)c1ccc2c(c1)c(-c1cccc(Cl)c1)cc(=O)n2C [Tipifarnib] + C[C@@H](Oc1cc(-c2cnn(C3CCNCC3)c2)cnc1N)c1c(Cl)ccc(F)c1Cl [Crizotinib] (partner 1 µM)
Procedure, shortened: as §1

Tipifarnib + Pictilisib = compound: Cn1cncc1[C@@](N)(c1ccc(Cl)cc1)c1ccc2c(c1)c(-c1cccc(Cl)c1)cc(=O)n2C [Tipifarnib] + CS(=O)(=O)N1CCN(Cc2cc3nc(-c4cccc5[nH]ncc45)nc(N4CCOCC4)c3s2)CC1 [Pictilisib] (partner 1 µM)
Procedure, shortened: as §1

| Cell Line | relative viability (Tipifarnib + Dasatinib; first compound 0.01 µM) | relative viability (Tipifarnib + Dasatinib; first compound 0.03162 µM) | relative viability (Tipifarnib + Dasatinib; first compound 0.1 µM) | relative viability (Tipifarnib + Dasatinib; first compound 0.3162 µM) | relative viability (Tipifarnib + Dasatinib; first compound 1 µM) | relative viability (Tipifarnib + Vorinostat; first compound 0.01 µM) | relative viability (Tipifarnib + Vorinostat; first compound 0.03162 µM) | relative viability (Tipifarnib + Vorinostat; first compound 0.1 µM) | relative viability (Tipifarnib + Vorinostat; first compound 0.3162 µM) | relative viability (Tipifarnib + Vorinostat; first compound 1 µM) | relative viability (Tipifarnib + Crizotinib; first compound 0.01 µM) | relative viability (Tipifarnib + Crizotinib; first compound 0.03162 µM) | relative viability (Tipifarnib + Crizotinib; first compound 0.1 µM) | relative viability (Tipifarnib + Crizotinib; first compound 0.3162 µM) | relative viability (Tipifarnib + Crizotinib; first compound 1 µM) | relative viability (Tipifarnib + Pictilisib; first compound 0.01 µM) | relative viability (Tipifarnib + Pictilisib; first compound 0.03162 µM) | relative viability (Tipifarnib + Pictilisib; first compound 0.1 µM) | relative viability (Tipifarnib + Pictilisib; first compound 0.3162 µM) | relative viability (Tipifarnib + Pictilisib; first compound 1 µM) |
| --- | --- | --- | --- | --- | --- | --- | --- | --- | --- | --- | --- | --- | --- | --- | --- | --- | --- | --- | --- | --- |
| NCI-H2405 | 0.188 | 0.208 | 0.219 | 0.228 | 0.217 | 1.12 | 0.967 | 0.817 | 0.881 | 0.547 | 0.896 | 0.827 | 0.837 | 0.804 | 0.712 | 0.406 | 0.412 | 0.351 | 0.405 | 0.404 |
| NCI-H3122 | 0.63 | 0.456 | 0.644 | 0.327 | 0.138 | 1.12 | 0.962 | 0.709 | 0.538 | 0.219 | 0.281 | 0.217 | 0.249 | 0.256 | 0.254 | 0.6 | 0.489 | 0.442 | 0.347 | 0.27 |
| PC-3 [JPC-3] | 1.01 | 0.994 | 0.99 | 0.679 | 0.532 | 0.823 | 0.674 | 0.529 | 0.426 | 0.386 | 1.04 | 0.928 | 0.88 | 0.828 | 0.709 | 0.811 | 0.651 | 0.651 | 0.44 | 0.508 |
| PC-14 | 0.261 | 0.206 | 0.191 | 0.128 | 0.093 | 0.698 | 0.324 | 0.455 | 0.236 | 0.157 | 0.928 | 0.834 | 0.748 | 0.469 | 0.43 | 0.656 | 0.59 | 0.251 | 0.169 | 0.173 |
| RERF-LC-KJ | 0.884 | 0.778 | 0.724 | 0.535 | 0.574 | 0.652 | 0.652 | 0.544 | 0.324 | 0.224 | 0.794 | 0.847 | 0.754 | 0.633 | 0.713 | 0.551 | 0.501 | 0.561 | 0.347 | 0.328 |
| SK-LU-1 | 0.16 | 0.152 | 0.156 | 0.14 | 0.133 | 0.771 | 0.635 | 0.492 | 0.417 | 0.471 | 0.932 | 0.665 | 0.667 | 0.639 | 0.657 | 0.574 | 0.568 | 0.424 | 0.378 | 0.299 |
| SK-MES-1 | 0.44 | 0.341 | 0.337 | 0.18 | 0.249 | 1.14 | 0.99 | 1.05 | 0.842 | 0.57 | 0.974 | 0.864 | 0.95 | 0.69 | 0.656 | 0.349 | 0.401 | 0.395 | 0.247 | 0.239 |
| SW 1573 | 0.379 | 0.33 | 0.297 | 0.217 | 0.198 | 0.701 | 0.434 | 0.308 | 0.312 | 0.179 | 0.767 | 0.701 | 0.462 | 0.317 | 0.316 | 0.492 | 0.426 | 0.397 | 0.289 | 0.236 |
| UMC-11 | 0.419 | 0.441 | 0.422 | 0.357 | 0.29 | 0.314 | 0.348 | 0.338 | 0.291 | 0.307 | 0.24 | 0.278 | 0.224 | 0.181 | 0.184 | 0.676 | 0.511 | 0.495 | 0.445 | 0.31 |
